Measured values reported in patent EP2226070B1, “Process for determining the optimal dosage of antivitamins K in anticoagulant therapy” (Puech, Roger, priority 2009, dated 2010).

Tested on: INR
Assay: Correlation of optimal dosages between different vitamin K antagonists, established with the dosage determination process
Type: in vivo, patient
Conditions: for dose correspondant à 1/4 de comprimé de "Préviscan" (corrélation proportionnelle entre différents antivitamines K): dose equivalent to 1/4 tablet of Préviscan for the optimal anticoagulant dosage
Excerpt: Ce procédé de détermination est original en ce qu'il comprend les étapes suivantes consistant : • (a) à enregistrer la valeur IO de l'INR optimal cible, • (b) à enregistrer les valeurs d'INR mesurées dans une période donnée T1 à partir d'un surdosage Dmaxi dudit antivitamine K fixé préalablement par le prescripteur au-dessus du dosage préconisé, afin de déterminer une première pente P1 des valeurs d'INR en fonction du temps T1, • (c) à partir de la pente P1, à extrapoler et à enregistrer une valeur Imaxi d'INR théoriquement atteinte à partir du jour où la valeur IO de l'INR cible est atteinte et au bout d'une période déterminée T0, • (d) à enregistrer les valeurs d'INR mesurées dans une période donnée T2 à partir d'un sous-dosage Dmini dudit antivitamine K fixé par le prescripteur au-dessous du dosage préconisé, afin de déterminer une deuxième pente P2 des valeurs d'INR en fonction du temps T2, • (e) à partir de la pente P2, à extrapoler et à enregistrer une valeur Imini d'INR théoriquement atteinte à partir du jour où la valeur IO de l'INR cible est atteinte et au bout de la même période déterminée T0, • (f) à calculer à partir de la différence entre les valeurs Imaxi et Imini d'INR théoriquement calculées, un facteur de correction de posologie dudit antivitamine K exprimé selon la formule suivante : F = (Imaxi -Imini)/(Dmaxi -Dmini) [formula] • (g) afin de déterminer à partir de la différence entre les valeurs I0 de l'INR cible optimal et de l'Imini de l'INR minimum calculé, et dudit facteur F de correction de posologie dudit antivitamine K, la posologie adéquate D0 permettant d'atteindre et de maintenir constante la valeur Io de l'INR cible fixée préalablement selon la relation suivante : D0 = Dmini + (I0 -Imini)/(F). [formula]
C'est aussi à partir de son procédé de détermination de dosage optimal d'un antivitamine K, que le demandeur a pu établir également une corrélation proportionnelle entre différents antivitamines K (1/4 de comprimé de "Préviscan" correspond à 0,82 mg de "Sintrom", à 2 mg de "Coumadine" ou à 0,82 mg de "Apegmone") de sorte qu'à partir d'un dosage optimal d'un antivitamine K prescrit, il peut calculer le dosage optimal d'un autre antivitamine K en remplacement du premier.

Row | Structure (SMILES) | dose de référence de la corrélation proportionnelle entre différents antivitamines K (reference dose of the proportional correlation) | dose correspondant à 1/4 de comprimé de "Préviscan" (corrélation proportionnelle entre différents antivitamines K)
1 | O=C1c2ccccc2C(=O)C1c1ccc(F)cc1 [Préviscan] | 1/4 | –
2 | CC(=O)CC(c1ccc([N+](=O)[O-])cc1)c1c(O)c2ccccc2oc1=O (stereo not shown) [Sintrom] | – | 0,82 mg
3 | CC(=O)CC(c1ccccc1)c1c(O)c2ccccc2oc1=O (stereo not shown) [Coumadine] | – | 2 mg
4 | O=c1oc2ccccc2c(O)c1C(CC(O)c1ccc(Cl)cc1)c1ccc(Cl)s1 (stereo not shown) [Apegmone] | – | 0,82 mg
